These results are taken from patent US20250145600A1, “2-((4-((S)-2-(4-CHLORO-2-FLUOROPHENYL)-2-METHYLBENZO[D][1,3]DIOXOL-4-YL)PIPERIDIN-1-YL)METHYL)-1-(((S)-OXETAN-2-YL)METHYL)-1H-IMIDAZOLE DERIVATIVES AS ACTIVATORS OF THE GLP1 RECEPTOR FOR THE TREATMENT OF OBESITY” (Novartis AG, priority 2022, published 2025).

For this experiment, the target named is human GLP1R (Homo sapiens, UniProt P43220). Description: Human GLP1R DERET internalization assay. It counts as cell-based. The settings on record: HEK293-SNAP-hGLP1R-GloSensor cells; for EC50: top concentration 30 μM; for Emax: relative to GLP1(7-36). Here is the method: Compounds of formula (I) according to the invention were tested in the following cellular assays that measure the intracellular cAMP concentration, beta-arrestin recruitment and receptor internalization. The cAMP is generated by the activation of GLP1R. The extent to which the GLP1R is internalized into the cell and away from the plasma membrane following activation is also shown in Table 2. EC50 for each assay is defined as the concentration of the compound that leads to half of the maximum response (after baseline correction). Emax is defined as the maximum response observed for the test compound, normalized to the maximum response observed for the endogenous ligand (GLP1(7-36)) to GLP1R.
Human GLP1R DERET Internalization Assay
The extent to which agonists internalize the human GLP1R was determined based on an optimized version of a RealTime FRET-based ‘DERET’ (Dissociation Enhanced Resonance Energy Transfer) assay. The technology relies on labeling of the SNAP-tagged GPCR with a SNAP-Lumi-Terbium (donor fluorophore, Cisbio, cat #SSNPTBD). The compounds are incubated with the cells over-expressing the GPCR of interest in the presence of an excess of fluorescein (acceptor fluorophore). When the GPCR is on the cell surface, the donor signal is quenched by the acceptor and the donor/acceptor ratio is low. As the GPCR internalizes, the donor signal is no longer quenched, and the acceptor is no longer excited so the donor/acceptor ratio increases.
HEK293-SNAP-hGLP1R-GloSensor cells (stably overexpressing SNAP-tagged hGLP1R) were seeded overnight in white 384-well poly-D-Lysine coated plates (Greiner Bio One, cat #781945) in regular DMEM growth medium (Gibco, cat #11965-092, 10% heat-inactivated FBS, 10 mM HEPES, 1× penicillin/streptomycin, 0.5 mg/mL geneticin (Gibco, cat #10131-035) and 0.25 mg/mL hygromycin B (Invitrogen, cat #10687010). On the assay day, cell medium was removed and 100 nM SNAP-Lumi-Tb reagent was added in Opti-MEM solution. The cells were incubated at 37° C. for 1 h. Cells were washed using a plate washer in assay buffer [1×HBSS (10× Gibco, cat #14065-056), 20 mM Hepes (Gibco, cat #15630-080), 1 mM CaCl2 (Fluka, cat #21114-1L), 1 mM MgCl2 (Ambion, cat #AM9530G) pH7.4], and 20 μL buffer with 0.1% BSA was added to each well. After leaving cells to equilibrate for […] at 37° C., 10 μL of Fluorescein (sodium salt, Sigma, cat #F6377, diluted in buffer) was added at 25 μM final concentration. To generate triplicate dose response curves, compounds were serially diluted 3-fold in assay buffer, then added to the cell assay plate to a final volume of 40 μL and final top concentrations starting at 30 μM. In the same plate and assay buffer as the tested compounds, a GLP1 (7-36) peptide (Bachem, cat #H-6795) control curve was included at a final top concentration of 1 μM in order to establish EC100. EC0 wells with buffer only were also included. The plate FRET fluorescence was measured immediately using a Perkin Elmer Envision with LANCE/DELFIA D400 single mirror, excitation filter X320, and emission filters M615_203 (donor emission) and M515 (acceptor emission), and then measured every 30 min. […] Plates were kept at 37° C. between reads. Data was expressed as the ratio of donor/acceptor emissions using Microsoft Excel and plotted in GraphPad Prism. In order to determine EC50 and Emax for internalization, data was calculated and expressed as percent of the GLP1 (7-36) EC100 control wells: [(sample signal−mean EC0 signal)/(mean EC100 of GLP1 (7-36) signal−mean EC0 signal)]*100 using Microsoft Excel. Curve fitting for EC50 determinations was performed using GraphPad Prism. The 4-parameter logistic model, Hill slope was used:
where Y is the functional response; X is the compound concentration; bottom is A0 or the minimum value (at 0 dose); top is Ainf or the maximum value (at infinite dose); EC50 is the point of inflection (i.e. the point on the sigmoid shaped curve halfway between A0 and Ainf). […]

Structures are written as SMILES. Where only a bound is given, the exact number is not on record here.

Sequence of human GLP1R (P43220 24-463): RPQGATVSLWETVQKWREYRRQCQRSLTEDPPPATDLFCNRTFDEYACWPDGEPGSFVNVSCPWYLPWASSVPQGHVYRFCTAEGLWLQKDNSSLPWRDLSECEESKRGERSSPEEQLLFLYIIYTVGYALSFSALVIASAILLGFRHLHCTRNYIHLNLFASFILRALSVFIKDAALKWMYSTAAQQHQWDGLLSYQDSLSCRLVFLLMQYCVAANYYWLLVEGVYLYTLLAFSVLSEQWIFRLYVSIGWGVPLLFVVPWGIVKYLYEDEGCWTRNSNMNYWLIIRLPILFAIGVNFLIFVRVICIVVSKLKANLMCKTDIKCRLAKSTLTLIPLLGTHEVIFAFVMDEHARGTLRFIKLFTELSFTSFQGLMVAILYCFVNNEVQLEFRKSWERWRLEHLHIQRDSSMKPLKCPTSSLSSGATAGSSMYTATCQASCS

For the molecule `CCc1oc(-c2c(C)nc(CN3CCC(c4cccc5c4O[C@@](C)(c4ccc(Cl)cc4F)O5)CC3)n2C[C@@H]2CCO2)nc1C(=O)O` [Compound C-10, 2-(2-((4-((S)-2-(4-chloro-2-fluorophenyl)-2-methylbenzo[d][1,3]dioxol-4-yl)piperidin-1-yl)methyl)-4-methyl-1-(((S)-oxetan-2-yl)methyl)-1H-imidazol-5-yl)-5-ethyloxazole-4-carboxylic acid], the EC50 was more than 30000 nM and the Emax was 7%.
The matching figures for `CCc1nc(CN2CCC(c3cccc4c3O[C@@](C)(c3ccc(Cl)cc3F)O4)CC2)n(C[C@H]2CCO2)c1-c1nc(C(=O)O)co1` [Compound C-7, 2-(2-((4-((S)-2-(4-chloro-2-fluorophenyl)-2-methylbenzo[d][1,3]dioxol-4-yl)piperidin-1-yl)methyl)-4-ethyl-1-(((R)-oxetan-2-yl)methyl)-1H-imidazol-5-yl)oxazole-4-carboxylic acid]: 30 nM and 51%.

For orientation: EC50 means the concentration needed to bring the measured effect to its halfway point. High values mean lower potency in that assay, low ones higher potency in that assay. The Emax is the maximal effect, on the per cent scale that the assay sets.
